Emax and EC50 data for 21 compounds are collected here from patent US20250230155A1 (Vanderbilt University, priority 2021, published 2025).

Structures are written as SMILES. pEC50: −log10 of the molar value.

In the test the target is T1, human mAChR M4 (Homo sapiens, UniProt P08173).
T1 construct: expressed in transfected cells
T1 sequence (P08173 1-479): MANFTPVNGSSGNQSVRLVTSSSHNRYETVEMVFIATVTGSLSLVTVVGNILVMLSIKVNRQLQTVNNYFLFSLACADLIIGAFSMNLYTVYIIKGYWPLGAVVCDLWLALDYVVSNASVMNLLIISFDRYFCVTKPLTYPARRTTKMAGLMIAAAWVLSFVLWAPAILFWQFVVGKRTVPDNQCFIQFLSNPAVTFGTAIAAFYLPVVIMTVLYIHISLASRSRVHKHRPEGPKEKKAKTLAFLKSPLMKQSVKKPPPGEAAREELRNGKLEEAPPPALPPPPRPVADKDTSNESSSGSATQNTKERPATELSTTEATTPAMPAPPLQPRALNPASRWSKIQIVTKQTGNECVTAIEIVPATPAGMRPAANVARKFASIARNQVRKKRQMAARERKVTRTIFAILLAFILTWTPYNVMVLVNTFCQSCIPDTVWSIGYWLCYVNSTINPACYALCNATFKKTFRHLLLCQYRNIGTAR
Nature of the test: mAChR M4 cell-based functional assay (calcium mobilization, CHO-K1 hM4-Gqi5 cells). The following applies: for pEC50: positive allosteric modulator activity, increase in the EC20 acetylcholine response, CHO-K1 hM4-Gqi5 cells, read-out: Human M4 EC50; for Emax at 30 µM: CHO-K1, % ACh maximum at 30 μM, human M4. How it is done: Human and rat M4 cDNAs, along with the chimeric G protein Gqi5, were transfected into Chinese hamster ovary (CHO-K1) cells purchased from the American Type Culture Collection using Lipofectamine2000. hM4-Gqi5 cells were grown in Ham's F-12 medium containing 10% heat-inactivated fetal bovine serum (FBS), 20 mM HEPES, 50 μg/mL G418 sulfate, and 500 μg/mL Hygromycin B. rM4-Ggi5 cells were grown in DiVEM containing 10% heat-inactivated FBS, 20 mM THEPES, 400 μμg/mL G418 sulfate, and 500 μμg/mL Hygromycin B.
For high throughput measurement of agonist-evoked increases in intracellular calcium, CHO-K1 cells stably expressing muscarinic receptors were plated in growth medium lacking G418 and hygromycin at 15,000 cells/20 μL/well in Greiner 384-well black-walled, tissue culture (TC)-treated, clear-bottom plates (VWR). Cells were incubated overnight at 37° C. and 5% CO2. The next day, cells were washed using an ELX 405 (BioTek) with assay buffer; the final volume was then aspirated to 20 μL. Next, 20 μL of a […] of Fluo-4/acetoxymethyl ester (Invitrogen, Carlsbad, CA), prepared as a 2.3 mM stock in DMSO and mixed in a 1:1 ratio with 10% (w/v) Pluronic F-127 and diluted in assay buffer, was added to the wells and the cell plates were incubated for 50 min at 37° C. and 5% C02. Dye was removed by washing with the ELX 405 and the final volume was aspirated to 20 μL. Compound master plates were formatted in an 11 point concentration-response curve (CRC) format (1:3 dilutions) in 100% DMSO with a starting concentration of 10 mM using a BRAVO liquid handler (Agilent). Test compound CRCs were then transferred to daughter plates (240 nL) using the Echo acoustic plate reformatter (Labcyte, Sunnyvale, CA) and then diluted into assay buffer (40 μL) to a 2× stock using a Thermo Fisher Combi (Thermo Fisher Scientific, Waltham, MA).
Calcium flux was measured using the Functional Drug Screening System (FDSS) 6000 or 7000 (Hamamatsu Corporation, Tokyo, Japan) as an increase in the fluorescent static ratio. Compounds were applied to cells (20 μL, 2×) using the automated system of the FDSS at 2-4 seconds into the protocol and the data were collected at 1 Hz. At 144 seconds, 10 μL of an EC20 concentration of the muscarinic receptor agonist acetylcholine was added (5×), followed by the addition of 12 μL of an EC80 concentration of acetylcholine at the 230 second time point (5×). Agonist activity was analyzed as a concentration-dependent increase in calcium mobilization upon compound addition. Positive allosteric modulator activity was analyzed as a concentration-dependent increase in the EC20 acetylcholine response. Antagonist activity was analyzed as a concentration-dependent decrease in the EC80 acetylcholine response. Concentration-response curves were generated using a four-parameter logistical equation in XLFit curve fitting software (IDBS, Bridgewater, NJ) for Excel (Microsoft, Redmond, WA) or Prism (GraphPad Software, Inc., San Diego, CA).
Compounds were synthesized as described above. Activity (EC50 and Emax) was determined in the mAChR M4 cell-based functional assay as described above and the data are shown in Table 2. The compound number corresponds to the compound numbers used in Table 1.
On the technique in general: A change in cytosolic calcium serves as a functional read-out for many receptors and channels.

A word on the Emax: it is the size of the effect at its maximum, as opposed to the concentration needed. One may read the pEC50 as the negative decadic logarithm of the EC50, by convention in mol/L. Consider `Cc1cc(C#N)nnc1N1CCc2ncc(C(F)F)cc2C1` [Example 309, 6-(3-(difluoromethyl)-7,8-dihydro-1,6-naphthyridin-6(5H)-yl)-5-methylpyridazine-3-carbonitrile], for which the pEC50 is 6.11. Moreover, the Emax (CHO-K1) turned out to be 96%.
On to `Cc1cc(C#N)cnc1N1CCc2ncc(Oc3ccc(F)cc3F)cc2C1` [Example 310, 6-(3-(2,4-difluorophenoxy)-7,8-dihydro-1,6-naphthyridin-6(5H)-yl)-5-methylnicotinonitrile], for which the Emax at 30 µM was 90% and the pEC50 was 6.22.
As to `Cc1cc(C#N)nnc1N1CCc2ncc(Nc3ccnn3C)cc2C1` [Example 311, 5-methyl-6-(3-((1-methyl-1H-pyrazol-5-yl)amino)-7,8-dihydro-1,6-naphthyridin-6(5H)-yl)pyridazine-3-carbonitrile], the Emax at 30 µM worked out at 94% and the pEC50 was 6.62.
For the compound `Cc1c(C#N)nnc(N2CCc3ncc(-c4ccc(N(C)C)nc4)cc3C2)c1C` [Example 312, 6-(3-(6-(dimethylamino)pyridin-3-yl)-7,8-dihydro-1,6-naphthyridin-6(5H)-yl)-4,5-dimethylpyridazine-3-carbonitrile], the Emax at 30 µM amounted to 50% and the pEC50 is 6.34.
Regarding `Cc1cc(Nc2cnc3c(c2)CN(c2ncc(C#N)cc2C)CC3)n(CCC(C)C)n1` [Example 313, 6-(3-((1-isopentyl-3-methyl-1/- pyrazol-5-yl)amino)-7,8-dihydro-1,6-naphthyridin-6(5H)-yl)-5-methylnicotinonitrile], the Emax at 30 µM was determined as 42% and the pEC50 was 6.22.
`Cc1cc(C#N)cnc1N1CCc2ncc(N3CCCn4nccc43)cc2C1` [Example 314, 6-(3-(6,7-dihydropyrazolo[1,5-a]pyrimidin-4(5H)-yl)-7,8-dihydro-1,6-naphthyridin-6(5H)-yl)-5-methylnicotinonitrile]: the Emax at 30 µM came to 94% and the pEC50 was 7.59.
On to `CCCCn1nc(C)cc1Nc1cnc2c(c1)CN(c1ncc(C#N)cc1C)CC2` [Example 315, 6-(3-((1-butyl-3-methyl-1H-pyrazol-5-yl)amino)-7,8-dihydro-1,6-naphthyridin-6(5H)-yl)-5-methylnicotinonitrile], for which the Emax at 30 µM worked out at 47% and the pEC50 was 6.02.
For the compound `Cc1cc(Nc2cnc3c(c2)CN(c2ncc(C#N)cc2C)CC3)n(C(C)C)n1` [Example 316, 6-(3-((1-isopropyl-3-methyl-1H-pyrazol-5-yl)amino)-7,8-dihydro-1,6-naphthyridin-6(5H)-yl)-5-methylnicotinonitrile], the maximal effect (Emax) at 30 µM came to 57% and the pEC50 was 6.16.
As to `Cc1c(C#N)nnc(N2CCc3ncc(C4CC4)cc3C2)c1C` [Example 317, 6-(3-cyclopropyl-7,8-dihydro-1,6-naphthyridin-6(5H)-yl)-4,5-dimethylpyridazine-3-carbonitrile], the Emax at 30 µM came to 85% and the pEC50 was 7.01.
The like results for `Cc1cc(C#N)cnc1N1CCc2ncc(-c3ccc(N(C)C)nc3)cc2C1` [Example 318, 6-(3-(6-(dimethylamino)pyridin-3-yl)-7,8-dihydro-1,6-naphthyridin-6(5H)-yl)-5-methylnicotinonitrile] were, in that order, 74% and 6.33.
`Cc1cc(C#N)cnc1N1CCc2ncc(-c3ccc(F)nc3)cc2C1` [Example 319, 6-(3-(6-fluoropyridin-3-yl)-7,8-dihydro-1,6-naphthyridin-6(5H)-yl)-5-methylnicotinonitrile]: the Emax at 30 µM is 76% and the pEC50 is 6.84.
Take `Cc1cc(F)ncc1-c1cnc2c(c1)CN(c1nnc(C#N)c(C)c1C)CC2` [Example 320, 6-(3-(6-fluoro-4-methylpyridin-3-yl)-7,8-dihydro-1,6-naphthyridin-6(5H)-yl)-4,5-dimethylpyridazine-3-carbonitrile]: the Emax at 30 µM stood at 54% and the pEC50 is 5.57.
In the case of `Cc1cc(C#N)nnc1N1CCc2ncc(-c3ccc(C4CC4)nc3)cc2C1` [Example 321, 6-(3-(6-cyclopropylpyridin-3-yl)-7,8-dihydro-1,6-naphthyridin-6(5H)-yl)-5-methylpyridazine-3-carbonitrile], the Emax at 30 µM was determined as 73% and the pEC50 was 6.45.
Turning to `Cc1ccncc1-c1cnc2c(c1)CN(c1nnc(C#N)cc1C)CC2` [Example 322, 5-methyl-6-(3-(4-methylpyridin-3-yl)-7,8-dihydro-1,6-naphthyridin-6(5H)-yl)pyridazine-3-carbonitrile], the Emax at 30 µM was 86% and the pEC50 is 5.98.
Consider `Cc1cc(C#N)nnc1N1CCc2ncc(-c3cn(C)nc3C)cc2C1` [Example 323, 6-(3-(1,3-dimethyl-1H-pyrazol-4-yl)-7,8-dihydro-1,6-naphthyridin-6(5H)-yl)-5-methylpyridazine-3-carbonitrile], for which the Emax at 30 µM came to 86% and the pEC50 was 6.12.
In the case of `Cc1c(C#N)nnc(N2CCc3ncc(-c4cnn(CCN(C)C)c4)cc3C2)c1C` [Example 324, 6-(3-(1-(2-(dimethylamino)ethyl)-1H-pyrazol-4-yl)-7,8-dihydro-1,6-naphthyridin-6(5H)-yl)-4,5-dimethylpyridazine-3-carbonitrile], the Emax at 30 µM amounted to 70% and the negative logarithm of the EC50 (pEC50) is 5.97.
Take `Cc1c(C#N)nnc(N2CCc3ncc(-c4cnn(CCN5CCOCC5)c4)cc3C2)c1C` [Example 325, 4,5-dimethyl-6-(3-(1-(2-morpholinoethyl)-1H-pyrazol-4-yl)-7,8-dihydro-1,6-naphthyridin-6(5H)-yl)pyridazine-3-carbonitrile]: the Emax at 30 µM came out at 51% and the pEC50 was 5.53.
On to `Cc1c(C#N)nnc(N2CCc3ncc(-c4cnn(C(F)F)c4)cc3C2)c1C` [Example 326, 6-(3-(1-(difluoromethyl)-1H-pyrazol-4-yl)-7,8-dihydro-1,6-naphthyridin-6(5H)-yl)-4,5-dimethylpyridazine-3-carbonitrile], for which the Emax at 30 µM was determined as 68% and the pEC50 was 6.21.
The corresponding values for `Cc1c(C#N)nnc(N2CCc3ncc(-c4cnn(CC(C)(C)O)c4)cc3C2)c1C` [Example 327, 6-(3-(1-(2-hydroxy-2-methylpropyl)-1H-pyrazol-4-yl)-7,8-dihydro-1,6-naphthyridin-6(5H)-yl)-4,5-dimethylpyridazine-3-carbonitrile] are 68% and 5.72.
The like results for `Cc1c(C#N)nnc(N2CCc3ncc(-c4ccc(N5CCN(C)CC5)nc4)cc3C2)c1C` [Example 328, 4,5-dimethyl-6-(3-(6-(4-methylpiperazin-1-yl)pyridin-3-yl)-7,8-dihydro-1,6-naphthyridin-6(5H)-yl)pyridazine-3-carbonitrile] were, in that order, 64% and 6.72.
With `Cc1c(C#N)nnc(N2CCc3ncc(-c4ccc(N5CC(C(C)(C)O)C5)nc4)cc3C2)c1C` [Example 329, 6-(3-(6-(3-(2-hydroxypropan-2-yl)azetidin-1-yl)pyridin-3-yl)-7,8-dihydro-1,6-naphthyridin-6(5H)-yl)-4,5-dimethylpyridazine-3-carbonitrile], the Emax at 30 µM came to 66% and the pEC50 was 6.26.
